SMILES strings stand for the structures.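 Grown in 96-well plates, cells were treated for 48 hours with each compound at five concentrations. Insufficient inhibition: endpoint recorded as highest concentration tested. Abbreviation: GI50, concentration required for 50% inhibition of growth. TGI: total growth inhibition.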

Common to all, as to experiment: NCI-60 cell line screen, 48 h
The subject of experiment [1] is OVCAR-5 ovarian.
Experiment [2] has as its system NCI-H23 lung.
The test system of experiment [3] is MALME-3M melanoma.
Experiment [4] concerns HL-60(TB) leukemia.
The test system of experiment [5] is HCC-2998 colon.
The test system of experiment [6] is SF-268 CNS.
The test system of experiment [7] is ACHN renal.
In experiment [8] the test system is MDA-N.
Experiment [9] relates to MCF7 breast.
Experiment [10] relates to BT-549 breast.

Consider `COc1ccc(N2C(=O)C(N3C(=O)C=CC3=O)C2C=O)cc1` (stereo unspecified), for which the TGI in experiment [1], in experiment [2], in [3], in experiment [4], in experiment [5] and in [6] was over 100 µM throughout. Besides, in experiment [7], the TGI was over 100 µM.

On to `c1ccc(CNc2ncnc3n[nH]nc23)cc1`, for which the TGI in experiment [1], in experiment [2], in experiment [8], in experiment [3], in experiment [4] and in [9] was over 100 µM throughout. Also, the TGI in experiment [5] and in [7] was over 100 µM in each case.

On to `COc1cccc2c1[C@]1(O)C(O)CCCC21` (stereo partly specified), for which the TGI in experiment [1], in experiment [2], in experiment [3], in experiment [5], in experiment [6] and in [7] was over 100 µM each time.

As to `c1cc2ccc1CNCCN1CCNCc3ccc(cc3)Oc3ccc(cc3)CNCCN(CCNCc3ccc(cc3)O2)CCNCc2ccc(cc2)Oc2ccc(cc2)CNCC1`, the GI50 was 1.66 µM in experiment [3]; 0.503 µM in experiment [4]; 0.581 µM in experiment [9]; 0.659 µM in experiment [5]; 3.88 µM in experiment [7]. Further, the TGI in experiment [3] was found to be 3.13 µM; in experiment [4], 2.02 µM; in experiment [9], 2.1 µM; in experiment [5] it was 1.99 µM; in experiment [7] it was 15.5 µM.

As for `CC1(C)CC2(C)OC(=N)C1(C#N)C2(C#N)C#N` (stereo unspecified), the TGI was found to be 27.3 µM in experiment [1]; 21.4 µM in [2]; 20.2 µM in experiment [8]; 31.4 µM in experiment [3]; 15.6 µM in experiment [4]; 24.8 µM in [9]. In addition, the TGI in experiment [5] was 24.4 µM; in [6] it was 33.8 µM; in [7], 20.3 µM.

As to `CN(C)c1ccc(/C=C2\C[C@H]3[C@@H]4CCc5cc(O)ccc5[C@H]4CC[C@]3(C)C2=O)cc1`, the TGI in [1], in experiment [2], in [8], in experiment [3], in experiment [9] and in experiment [5] was over 100 µM each time. The results for the TGI in experiment [6] and in experiment [7] were 61 µM and over 100 µM, respectively.

Turning to `O=C(C=P(c1ccccc1)(c1ccccc1)c1ccccc1)c1ccc(-c2ccc(F)cc2F)cc1`, the TGI in experiment [1] was found to be 9.29 µM; in experiment [2], 12.2 µM; in [8] it was 8.8 µM; in experiment [3], 7.17 µM; in experiment [4], 5.13 µM; in experiment [9], 7.95 µM. Besides, the TGI in [5] turned out to be 4.12 µM; in experiment [6], 15.5 µM; in experiment [7], 6.76 µM.

In the case of `CCOC(=O)C[n+]1ccc2c([nH]c3cc(OC)ccc32)c1C`, the TGI in experiment [1], in experiment [2], in [3], in experiment [4], in experiment [9] and in experiment [5] was over 100 µM in each case. The molecule also returned a TGI in experiment [6] of over 100 µM.

For the molecule `CC1OC=CC(=O)C1O` (stereo unspecified), the TGI in [1], in experiment [2], in [3], in experiment [4], in experiment [5] and in experiment [7] was over 100 µM each time.

For `COc1cc(S(=O)(=O)N/N=C/c2cc(Br)c(O)c(OC)c2)c(OC)cc1NC(C)=O`, the TGI in [1] was over 100 µM; in [2], over 100 µM; in experiment [8], over 100 µM; in experiment [4] it was 58 µM; in [9], over 100 µM; in [10], over 100 µM. Moreover, in experiment [7], the TGI was over 100 µM.

On to `c1ccc(-c2[nH]c(-c3ccccc3)c(-c3cnccn3)c2-c2cnccn2)cc1`, for which the TGI in experiment [1], in experiment [2], in [3], in [4], in experiment [5] and in [6] was over 100 µM in each case. In [7], this molecule came in with a TGI of over 100 µM.

Regarding `COc1ccc(NS(=O)c2cccc(C)c2)cc1` (stereo unspecified), the TGI in experiment [1], in [2], in experiment [8], in experiment [3], in experiment [4] and in experiment [9] was over 100 µM in each case. For the same molecule, the TGI in experiment [5] was 33.6 µM; in [6] it was over 100 µM; in [7], over 100 µM.

As for `O=C1OC2C=CC1C1(CCOC1=O)C2` (stereo unspecified), the TGI in experiment [1], in [2], in experiment [3], in [4], in [5] and in [6] was over 100 µM throughout. This molecule also showed a TGI in experiment [7] of over 100 µM.

Regarding `CCOC(=O)c1cn(C)nc1N/C(C)=C\C(=O)c1ccccc1`, the TGI in [1], in [2], in experiment [3], in [4], in [9] and in experiment [10] was over 100 µM each time. Besides, the TGI in experiment [5], in experiment [6] and in experiment [7] was over 100 µM in each case.

For `CCOC(=O)c1c(-c2ccc(OC)c(O)c2)c(C#N)c(=S)n(C2OC(CO)C(O)C(O)C2O)c1-c1ccccc1` (stereo unspecified), the TGI in [2], in experiment [8], in experiment [5], in experiment [6] and in [7] was over 100 µM throughout.

As to `O=C(O)CCCc1ccc2c(c1)CC1(C2)Cc2ccc(CCCC(=O)O)cc2C1`, the TGI in experiment [1], in experiment [2], in experiment [8], in experiment [3], in experiment [4] and in experiment [9] was over 100 µM throughout. The TGI in experiment [5] and in experiment [7] was over 100 µM each time.

Regarding `CC1(C)N=C(N)N=C(N)N1c1ccc(OCCCOc2ccccc2)c(Cl)c1`, the TGI was 10.4 µM in experiment [1]; 10.7 µM in [2]; 14.5 µM in experiment [3]; 14.8 µM in experiment [9]; 13.1 µM in experiment [5]; 13.5 µM in experiment [6].

On to `C=C1C(=O)O[C@H]2[C@H]([C@H](C)CCCC(C)=O)O[C@H]([C@@]3(C)CCC(=O)O3)C[C@@H]12`, for which the TGI in experiment [1] was over 100 µM; in experiment [2], over 100 µM; in experiment [8] it was over 100 µM; in experiment [3], 54.3 µM; in experiment [4], over 100 µM; in [10], over 100 µM. Moreover, the figures for the TGI in experiment [5], in experiment [6] and in experiment [7] were over 100 µM, 9.34 µM and over 100 µM, respectively.

On to `CC(=O)[C@H]1CCC2[C@@H]3CC=C4C(O)C(OS(=O)(=O)O)CC[C@]4(C)C3CC[C@@]21C` (stereo partly specified), for which the TGI was over 100 µM in [1]; over 100 µM in experiment [2]; over 100 µM in experiment [3]; over 31.6 µM in experiment [4]; over 100 µM in [9]; over 100 µM in experiment [5]. Besides, the TGI in [6] was over 100 µM.

As to `O=C(NC/C=C/Br)NC1CCNc2ccccc21` (stereo unspecified), the TGI is over 100 µM in [1]; 55.4 µM in experiment [2]; over 100 µM in experiment [8]; 77.9 µM in [3]; over 100 µM in [4]; 47.9 µM in experiment [9]. Besides, the TGI in experiment [5] was 59 µM; in experiment [6] it was over 100 µM; in experiment [7] it was over 100 µM.

In the case of `O=C(NCCCCNCCCNC(=O)OCc1ccccc1)OCc1ccccc1`, the TGI is over 100 µM in experiment [1]; over 100 µM in experiment [2]; 60.4 µM in experiment [4]; 71.2 µM in experiment [9]; over 100 µM in experiment [10]; 38.7 µM in [5]. Further, the TGI in experiment [6] and in [7] was over 100 µM throughout.

As to `NC1CCCCC1N.O=S(=O)([O-])CCCN1CCN(CCO)CC1.O=S(=O)([O-])CCCN1CCN(CCO)CC1.[Pt+4]`, the GI50 in experiment [1] is 8.22 µM; in [2] it was 7.36 µM; in experiment [3], 3.08 µM; in [4] it was 0.132 µM; in [9], 3.26 µM; in experiment [5] it was 9.55 µM. The GI50 in [6] was 3.72 µM. For the same molecule, the TGI in experiment [1] is over 38.7 µM; in experiment [2] it was over 100 µM; in experiment [3], 28.3 µM; in experiment [4], 11.6 µM; in experiment [9], over 100 µM; in [5], over 63.4 µM. The molecule also had a TGI in [6] of over 78 µM.

With `CC1(C)O[C@@H](CP(c2cccc3ccccc23)c2cccc3ccccc23)[C@H](CP(c2cccc3ccccc23)c2cccc3ccccc23)O1`, the TGI in [1], in [2], in experiment [8], in experiment [9], in experiment [10] and in experiment [5] was over 100 µM throughout. For the same molecule, the TGI in experiment [6] and in experiment [7] was over 100 µM in each case.

As to `COC(=O)[C@@H]1O[C@]12[C@@H](CO[Si](C)(C)C(C)(C)C)O[C@@H](n1cc(C)c(=O)[nH]c1=O)[C@@H]2O[Si](C)(C)C(C)(C)C`, the TGI in [1] turned out to be 36.6 µM; in experiment [2], 40.5 µM; in experiment [8], 27.6 µM; in [3], 43.4 µM; in [4], 5.47 µM; in [10], 32.6 µM. Moreover, the results for the TGI in experiment [6] and in [7] were 38 µM and 33 µM, respectively.

In the case of `CN(CCN(C)C(=O)CCn1ccc(=O)[nH]c1=O)C(=O)CCn1ccc(=O)[nH]c1=O`, the TGI in experiment [1], in [2], in experiment [3], in experiment [4], in experiment [5] and in experiment [6] was over 100 µM in each case. In [7], this molecule registered a TGI of over 100 µM.

On to `Cc1ccc2cnc(N)c(C#Cc3cncc(C(=O)Nc4ccc(CN5CCN(C)CC5)c(C(F)(F)F)c4)c3)c2c1`, for which the GI50 in experiment [1] is 0.579 µM; in experiment [2] it was 0.492 µM; in [3], 0.145 µM; in experiment [4], 0.212 µM; in experiment [9], 0.105 µM; in [10], 0.991 µM. Also, the GI50 in experiment [5] is 0.582 µM; in [6], 0.479 µM; in [7] it was 0.252 µM. Besides, the TGI in [1] is 1.24 µM; in experiment [2] it was 1.25 µM; in experiment [3], 0.62 µM; in [4], 0.908 µM; in experiment [9], 0.718 µM; in [10], 1.73 µM. For the same molecule, the TGI in experiment [5] amounted to 1.3 µM; in experiment [6], 1.27 µM; in experiment [7], 0.864 µM.

With `CCCCCCCCCCCCCCCCNc1ccn(C2CC(OP(=O)(O)OCC3OC(n4cc(CC)c(=O)[nH]c4=O)CC3O)C(CO)O2)c(=O)n1` (stereo unspecified), the TGI in experiment [1] is 62.8 µM; in experiment [2] it was over 100 µM; in experiment [4], 20.2 µM; in [9] it was over 100 µM; in [5], 88 µM; in experiment [6] it was 33.5 µM. Moreover, in experiment [7], the TGI was over 100 µM.

For `CC(=O)Nc1ccc(/C=C(\NC(=O)c2ccccc2)C(=O)NNS(=O)(=O)c2ccc(C)cc2)cc1`, the TGI in experiment [1], in [2], in [3], in experiment [4], in experiment [5] and in [6] was over 100 µM in each case. Moreover, the TGI in experiment [7] is over 100 µM.

With `CCCCCCc1cn([C@H]2C[C@H](O)[C@@H](CO)O2)c(=O)[nH]c1=O`, the TGI in experiment [1], in experiment [2], in experiment [3], in experiment [4], in [9] and in [5] was over 100 µM throughout. This molecule had a TGI in experiment [6] of over 100 µM.

Turning to `C/C(=C\CNc1nc(Cl)nc2nc[nH]c12)CO`, the TGI in experiment [1], in experiment [2], in experiment [8], in experiment [3], in [4] and in experiment [9] was over 100 µM throughout. Also, the TGI in [5], in experiment [6] and in experiment [7] was over 100 µM throughout.

For the origin of these results see PubChem BioAssay (NCI).
